Laboratory results from patent publication US11020360B2, “Methods, compounds, compositions and vehicles for delivering 3-amino-1-propanesulfonic acid” (Bellus Health, Inc., priority 2006, dated 2021).
“And” between values parts separate entries of the source, which are not always exact repeats. Equal entries are not always repeated. Structures can show the parent of a compound that is named as a salt.

Columns and labels:
[1] = tested on: primary rat neuron culture; assay: In vitro metabolism of 3APS in primary rat neuron culture; assay type: in vitro ADME; details: primary neuron culture media
Method: The metabolism of 3APS was also studied in vitro in different types of cellular models. In some cases, the metabolism of 3APS was compared with that of γ-amino butyric acid (GABA).
The conversion of 3APS to 2-carboxyethanesulfonic acid was time-dependent and cell concentration-dependent. Incubation of 3APS (400 μM initial concentration) for six days in the cell culture media (containing 800,000 cells) produced with 48 μM of 2-carboxyethanesulfonic acid. Under the same experimental conditions, 5.4 μM succinic acid was detected starting from GABA (400 μM initial concentration).

[2] = PK brain and plasma levels of oral Compound A2 and 3-APS in mice; assay type: in vivo; details: oral 0.18 mmol/kg
Method: Compounds A2 and 3-aminopropanesulfonic acid were tested for pharmacokinetic parameters in mice. Parmacokinetic parameters (Cmax, Tmax, T½, AUC) are evaluated for 3APS after administration of a molar equivalent of each compound. Blood samples (approximately 1 ml) and brain samples are collected from each of 3 animals at time points 5, 15, 30 minutes, 1, 2, 4, 6, 12, and 24 hours. […] A 2-fold increase in plasma concentration (Cmax) of 3-APS was observed when orally administering Compound A2 compared to 3-APS.

[3] = Bioavailability of exemplary compounds in mice (3APS quantified in plasma); assay type: in vivo; details: compared with 3APS
Method: Selected exemplary compounds were tested for bioavailability in mice. Bioavailability estimates are performed for 3APS after administration of molar equivalent the selected compounds. […] The animals are anesthetized with isoflurane before blood collection (approximately 45 sec). Samples are collected at 5, 30, 60, 120, 180, 240 and 360 min post intravenous administration and at 15, 30, 60, 120, 180, 240 and 360 min post oral administration. One animal is used to obtain a baseline sample (pre-dose sample). Blood samples are collected into Sarstedt™ micro tubes (EDTA KE/1.3 ml), kept on ice until centrifugation at 4° C. at a minimum speed of 3000 rpm (1620 G) for 10 min. Plasma samples are transferred into Eppendorf™ tubes, immediately placed on dry ice and stored at −80° C. Plasma samples are stored frozen at […] pending analysis.
Compounds in mouse plasma are extracted using protein precipitation. Quantitation of 3APS in mouse plasma matrix is achieved using LC-MS detection. Sample concentration is calculated using a calibration curve.

[4] = Mouse whole blood stability; assay type: in vitro ADME; details: 37° C.
Method: (§1) Test compounds were incubated for a total of 240 minutes at 37° C. in whole mouse and whole human blood. The compounds were added at time-point 0 and sample aliquots were withdrawn at each time point (usually 0, 60 and 240 minutes). The samples were extracted using protein precipitation. Analysis of extracted samples was achieved using HPLC with MS detection. Several types of HPLC columns and mobile phase were used depending of the polarity of the compound. The compound stability was determined by the % of compound remaining at 240 minutes (peak response of compound at 240 minutes/peak response at 0 minutes×100).

[5] = Metabolic profiling of 14C-3APS in mice; assay type: in vivo, male CD-1 mice
Method: (§2) Three single dose studies were conducted in mice, rats and dogs to determine the metabolic profile of ^14C-3APS in plasma, urine and feces. In the first study, twenty-seven male CD-1 mice received a single dose of 100 mg/kg (20 μCi/animal) of ^14C-3APS by oral gavage. Blood samples (3 animals/time point) were collected for 12 hr following drug administration while urine and feces (3 animals/time point) samples were collected for 96 hr. In the second study, eight male Sprague-Dawley rats received a single dose of 100 mg/kg (50 μCi/animal) of ^14C-3APS by oral gavage while in the third study, three male Beagle dogs received a single dose of 100 mg/kg (30 μCi/kg) of ^14C-3APS by oral gavage. For the rat and dog studies, blood samples were collected for 24 hr following drug administration while urine and feces samples were collected for 72 hr. All samples were analyzed for total radioactivity using appropriate sample preparation procedures and scintillation counting. Plasma and urine samples were also analyzed for 3APS and 3APS metabolites (2-carboxyethanesulfonic acid, 3-hydroxy-1-propanesulfonic acid and 3-acetylamino-1-propanesulfonic acid) concentrations using qualified HPLC and MS/MS methods.

[6] = Metabolic profiling of 14C-3APS in rats; assay type: in vivo, male Sprague-Dawley rats
Method: as §2

[7] = Single oral and IV administration of 14C-3APS to rats; assay type: in vivo, male Sprague-Dawley rats; details: for AUC0-∞ / AUC(0-inf): 100 mg/kg 14C-3APS, rats, 100 mg/kg; for AUC(0-inf): male, Sprague-Dawley, rat, plasma
Method: The purpose of this study was to investigate the absorption, metabolism and excretion profiles of ^14C-3APS following a single intravenous bolus and oral administration to rats. Thirty-six male Sprague-Dawley rats received a single 100 mg/kg (˜50 μCi/animal) dose of ^14C-3APS by an IV bolus injection (water or isotonic saline solution) and an additional 36 male rats received the same dose level by oral gavage (in water). Blood, urine, feces, brain and CSF samples were collected for up to 72 hr following dose administration. Plasma, urine, brain and CSF concentrations of 3APS and 2-carboxyethanesulfonic acid (3APS major metabolite) were measured using LC and MS/MS detection method. Plasma, urine, feces, brain and CSF samples were analyzed for total radioactivity using appropriate sample preparation procedures and scintillation counting.

[8] = Metabolic profiling of 14C-3APS in dogs; assay type: in vivo, male Beagle dogs
Method: as §2

[9] = Stability in water, at pH 1.5 and PBS; assay type: physicochemical; details: 37° C., 60 min
Method: Stability of exemplary compounds was determined in water, aqueous acidic solution (pH 1.5, HCl) and PBS (phosphate buffered saline) solution using ESI-MS (electrospray ionization mass spectrometry) as the detecting instruments. In general a 2 μg/mL pro-drug solution containing 1 μg/ml IS (internal standard) was prepared and incubated for 60 min. For water stability the incubation was performed at room temperature and for stability in acidic solution and in buffer. The incubation temperature was 37° C. Samples were analyzed for prodrug content at time points 0 and 60 min. using MS. The % changes in peak area ratio after 60 minutes for each test compound tested are calculated using the average values from six replicate runs. The compounds tested included Compounds A1 to A19, Compounds B5 and B6 and Compounds C1 to C26. Except for C26 which was found unstable at pH 1.5 and in PBS, all other compounds were judged to be stable under all conditions tested with less than about 15%-20% concentration change after 60 minutes.

[10] = Human whole blood stability; assay type: in vitro ADME; details: 37° C.
Method: as §1

[11] = Absorption, excretion and plasma kinetics of 14C-3APS in humans; assay type: in vivo, human
From the text: Following the identification of 3APS metabolites, plasma and urine samples from this human AME study were reanalyzed for 3APS and 3APS metabolite (2-carboxyethanesulfonic acid, 3-hydroxy-1-propanesulfonic acid and 3-acetylamino-1-propanesulfonic acid) concentrations using qualified HPLC and MS/MS methods to determine the metabolic profile of ^14C-3APS in human.

[12] = Mouse plasma, single oral 100 mg/kg 14C-3APS
[13] = Rat plasma, single oral 100 mg/kg 14C-3APS
[14] = IV, individual animals 1001-1004
[15] = PO, individual animals 3001-3004
[16] = Dog plasma, single oral 100 mg/kg 14C-3APS
[17] = Mouse plasma, analyte after single oral 100 mg/kg 14C-3APS
[18] = male, CD-1, mouse, plasma, po, 100 mg/kg, Mouse plasma, analyte after single oral 100 mg/kg 14C-3APS
[19] = Rat plasma, analyte after single oral 100 mg/kg 14C-3APS
[20] = male, Sprague-Dawley, rat, plasma, po, 100 mg/kg, Rat plasma, analyte after single oral 100 mg/kg 14C-3APS

Compound: C=CC(N)CCC(=O)O (stereo not drawn) [vigabatrin]
- effect on the conversion of 3APS to 2-carboxyethanesulfonic acid [1]: significantly inhibited

Compound: CC(C)[C@H](N)C(=O)NCCCS(=O)(=O)O [Compound A2]
- Brain concentration of 3-APS [2]: observed
- effect on bioavailability of 3APS [3]: increasing the bioavailability of 3APS
- Blood stability (% of compound remaining after 240 min.) Mouse Blood [4]: ++ (++: 30-75%)

Compound: NCCCS(=O)(=O)O [^14C-3APS]
- Total Radioactivity AUC0-τ [5, 12]: 24.4 μmol eq · min/mL
- Total Radioactivity AUC∞ [5, 12]: 25.0 μmol eq · min/mL
- % of the dose excreted in urine as total radioactivity ([5]; mouse, on average in all species): 60%
- Total Radioactivity AUC0-τ [6, 13]: 43.3 μmol eq · min/mL
- Total Radioactivity AUC∞ [6, 13]: 45.2 μmol eq · min/mL
- % of the dose excreted in urine as total radioactivity ([6]; rat, on average in all species): 60%
- AUC0-∞ Total Radioactivity ([7]; IV, Mean): 1591 nmol eq · h/mL
- AUC0-∞ Total Radioactivity [7, 14]: 1625 nmol eq · h/mL and 1588 nmol eq · h/mL and 1883 nmol eq · h/mL and 1266 nmol eq · h/mL
- AUC0-∞ Total Radioactivity ([7]; PO, Mean): 749 nmol eq · h/mL
- AUC0-∞ Total Radioactivity [7, 15]: 874 nmol eq · h/mL and 714 nmol eq · h/mL and 628 nmol eq · h/mL and 781 nmol eq · h/mL
- Total Radioactivity AUC0-τ [8, 16]: 45.4 μmol eq · min/mL
- Total Radioactivity AUC∞ [8, 16]: 108 μmol eq · min/mL
- % of the dose excreted in urine as total radioactivity ([8]; dog, on average in all species): 60%

Compound: Cc1oc(=O)oc1COC(=O)NCCCS(=O)(=O)O [Compound C26, 3-({[(5-methyl-2-oxo-1,3-dioxol-4-yl)methoxy]carbonyl}amino)-1-propanesulfonic Acid Sodium Salt]
- Stability in PBS [9]: unstable
- Stability in aqueous acidic solution (pH 1.5, HCl) [9]: unstable

Compound: NCCCC[C@H](N)C(=O)NCCCS(=O)(=O)O [Compound A4]
- effect on bioavailability of 3APS [3]: increasing the bioavailability of 3APS
- Blood stability (% of compound remaining after 240 min.) Mouse Blood [4]: +++ (+++: >75%)
- Blood stability (% of compound remaining after 240 min.) Human Blood [10]: + (+: <30%)

Compound: NCC1(CC(=O)O)CCCCC1 [gabapentin]
- effect on the conversion of 3APS to 2-carboxyethanesulfonic acid [1]: no significant effect

Compound: N[C@@H](COCc1ccccc1)C(=O)NCCCS(=O)(=O)O [Compound A18]
- effect on bioavailability of 3APS [3]: increasing the bioavailability of 3APS
- Blood stability (% of compound remaining after 240 min.) Mouse Blood [4]: + (+: <30%)
- Blood stability (% of compound remaining after 240 min.) Human Blood [10]: + (+: <30%)

Compound: O=C(O)CCS(=O)(=O)O [2-carboxyethanesulfonic acid]
- AUC0-τ [5, 17]: 7.26 µmol·min/mL
- AUC∞ [5, 17]: 7.56 µmol·min/mL
- % of Total Radioactivity, Plasma ([5]; Mouse, AUC0-∞ analyte/AUC total radioactivity, single oral 100 mg/kg 14C-3APS): 30%
- % of Total Radioactivity, Urine ([5]; Mouse, amount excreted, single oral 100 mg/kg 14C-3APS, 100 mg/kg): 62%
- Tmax [5, 18]: 2 h
- half-life [5, 18]: ~2 h
- Cmax ([5]; male, CD-1, Mouse plasma, analyte (3APS or metabolite) after single oral 100 mg/kg 14C-3APS): 18 µM
- AUC0-τ [6, 19]: 12.7 µmol·min/mL
- AUC∞ [6, 19]: 13.6 µmol·min/mL
- T1/2 ([6]; Rat plasma, analyte after single oral 100 mg/kg 14C-3APS, 100 mg/kg): 3.99 h
- % of Total Radioactivity, Plasma ([6]; Rat, AUC0-∞ analyte/AUC total radioactivity, single oral 100 mg/kg 14C-3APS): 30%
- % of Total Radioactivity, Urine ([6]; Rat, amount excreted, single oral 100 mg/kg 14C-3APS): 62%
- Tmax [6, 20]: 4 h
- half-life [6, 20]: ~4 h
- Cmax ([6]; male, Sprague-Dawley, Rat plasma, analyte (3APS or metabolite) after single oral 100 mg/kg 14C-3APS): 23.4 µM
- AUC0-∞ [7, 14]: 144 µM·h and 184 µM·h and 125 µM·h
- % of total radioactivity (AUC0-∞ analyte/AUC total radioactivity) [7, 14]: 6.5% and 9.1% and 9.8% and 9.9%
- AUC0-∞ [7, 15]: 153 µM·h and 177 µM·h and 229 µM·h
- % of total radioactivity (AUC0-∞ analyte/AUC total radioactivity) [7, 15]: 26.5% and 21.4% and 28.2% and 29.3%
- AUC(0-inf) ([7]; iv, Mean): 140 µM·h
- AUC(0-inf) ([7]; iv, individual animals 1001-1004): 105 µM·h
- AUC(0-inf) ([7]; po, Mean): 198 µM·h
- AUC(0-inf) ([7]; po, individual animals 3001-3004): 232 µM·h
- AUC0-τ ([8]; Dog plasma, analyte after single oral 100 mg/kg 14C-3APS): 30.5 µmol·min/mL
- % of Total Radioactivity, Urine ([8]; Dog, amount excreted, single oral 100 mg/kg 14C-3APS, 100 mg/kg): 77%
- Tmax ([8]; male, Beagle, dog, plasma, po, 100 mg/kg, Dog plasma, analyte after single oral 100 mg/kg 14C-3APS): 12 h
- Cmax ([8]; male, Beagle, Dog plasma, analyte (3APS or metabolite) after single oral 100 mg/kg 14C-3APS): 31.2 µM
- time of maximum plasma concentration ([11]; healthy subjects, analyte after oral 14C-3APS): 6.5 h
- % of total radioactivity in plasma based on AUC0-τ ([11]; healthy subjects, oral 14C-3APS): 49%
- % of total amount of radioactivity excreted in urine ([11]; human urine): 79%

Compound: N[C@@H](CO)C(=O)NCCCS(=O)(=O)O [Compound A7]
- effect on bioavailability of 3APS [3]: increasing the bioavailability of 3APS
- Blood stability (% of compound remaining after 240 min.) Mouse Blood [4]: +++ (+++: >75%)
- Blood stability (% of compound remaining after 240 min.) Human Blood [10]: +++ (+++: >75%)

Compound: O=C(CCNNC(=O)c1ccncc1)NCc1ccccc1 [Nialamide]
- effect on the conversion of 3APS to 2-carboxyethanesulfonic acid [1]: reduced the formation of 2-carboxyethanesulfonic acid (from 3APS) but to a lesser extent
